Data published in paper PMC12707346, “Discovery and validation of small molecule stabilizers of mutant triose phosphate isomerase (TPI) as potential lead candidates for TPI deficiency” (SLAS discovery : advancing life sciences R & D, 2025).
“Also recorded” adds a separate entry of the source. Read-outs that look alike come from different tables or passages of the source.

Key:
[1] = Tissue distribution study in mice, 20 mg/kg i.p.; type: in vivo, C57BL/6 J mice; settings: mouse; for concentration at 0.5 h / concentration at 1 h / concentration at 2 h / concentration at 4 h / concentration at 8 h / Kp at 1 h / Kp at 2 h / Kp at 4 h / Kp at 8 h / Kp at 0.5 h: male, IP 20 mg/kg; for concentration at 0.5 h / concentration at 1 h / concentration at 2 h / concentration at 4 h / concentration at 8 h: ip; for Kp at 1 h / Kp at 2 h / Kp at 4 h / Kp at 8 h / Kp at 0.5 h: read-out: Mean Tissue/ Plasma Conc Ratio
Protocol: Male C57BL/6 J (Jackson Laboratories) wild type mice (age: 40–60 days) weighing 25–30 g, were used for the tissue distribution study. Mice were randomly assigned in two groups: blank (n = 1) and treatment. The treatment group received 20 mg/kg compound 424 intraperitoneally (n = 15; 3 animals per time point i.e., 0.5, 1, 2, 4, and 8 h). Molport 002–877–424 was formulated in a vehicle consisting of 20 % DMSO, 50 % PEG300, and 30 % sterile water. At each time point animals were euthanized via isoflurane overdose. Blood was collected in ETDA-coated tubes at each time points and centrifuged at 15,000 x g for 5 min. The separated plasma was stored at −80 °C. Following blood collection, liver, kidney, skeletal muscle and brain were isolated, rinsed in normal saline and approximately 100 mg of tissues were snap-frozen and stored at −80 °C. All plasma and tissue samples were shipped on dry ice to Touchstone Biosciences for further analysis. Sample preparation and analysis was performed at Touchstone Biosciences exactly as described in [20].

[2] = Mouse pharmacokinetics, 10 mg/kg i.p.; type: in vivo, CD-1 mice; settings: CD-1, plasma, ip, 10 mg/kg intraperitoneal
Protocol: Mouse pharmacokinetics (PK) Mouse PK studies were performed exactly as described in [18-20] (except that Molport 002–877–424 was the test compound at 10 mg/kg i.p.) by Touchstone Biosciences (Ply-mouth Meeting, PA), following the National Research Council guide for the care and use of laboratory animals to ensure proper care, use, and human treatment of the animals used in the study, adhering to generally accepted procedures for animal housing, dosing and blood sampling, and following AVMA guidelines for euthanasia. All procedures were approved by an institutional review panel.
Plasma concentrations were measured as described to determine a concentration vs. time profile. The area under the plasma concentration vs time curve (AUC) was calculated using the linear trapezoidal method. Fitting of the data to obtain pharmacokinetic parameters was carried out using non-compartmental analysis. Key PK parameters reported following i.p. administration are as follows: terminal half-life t1/2, initial plasma concentration C0, area under the plasma concentration vs. time curve AUC, volume of distribution at steady-state Vss, total plasma clearance CLp, and mean residence time MRT. All parameters are expressed for individual animals as well as mean, standard deviation, and coefficient of variation.

[3] = C57BL/6J, liver homogenate, 20 mg/kg, Liver, read-out: Mean Plasma or Tissue Homogenate Conc
[4] = C57BL/6J, liver homogenate, 20 mg/kg, Liver, read-out: Plasma or Tissue Homogenate Conc (individual animals)
[5] = C57BL/6J, liver, 20 mg/kg, Liver, read-out: Mean Tissue
[6] = C57BL/6J, muscle homogenate, 20 mg/kg, Muscle, read-out: Mean Plasma or Tissue Homogenate Conc
[7] = C57BL/6J, muscle homogenate, 20 mg/kg, Muscle, read-out: Plasma or Tissue Homogenate Conc (individual animals)
[8] = C57BL/6J, muscle, 20 mg/kg, Muscle, read-out: Mean Tissue
[9] = C57BL/6 J, plasma, 20 mg/kg, Plasma, read-out: Mean Plasma or Tissue Homogenate Conc
[10] = C57BL/6 J, plasma, 20 mg/kg, Plasma, read-out: Plasma or Tissue Homogenate Conc (individual animals)
[11] = C57BL/6J, muscle/plasma, Muscle

## c1ccc(-c2nnc(-c3ccccn3)nc2NC2CCCCC2)cc1 [MolPort-002-877-424, C1CCC(CC1)Nc2nc(nnc2c3ccccc3)c4ccccn4]
[1]; [3]
  concentration at 0.5 h: 3600 ng/mL
  concentration at 1 h: 3030 ng/mL
  concentration at 2 h: 1570 ng/mL
  concentration at 4 h: 687 ng/mL
  concentration at 8 h: 273 ng/mL
[1]; [4]
  concentration at 0.5 h: 4280 ng/mL
  concentration at 1 h: 2450 ng/mL
  concentration at 2 h: 1370 ng/mL
  concentration at 4 h: 539 ng/mL
  concentration at 8 h: 205 ng/mL
[1]; [5]
  concentration at 0.5 h: 14400 ng/g
  concentration at 1 h: 12100 ng/g
  concentration at 2 h: 6270 ng/g
  concentration at 4 h: 2750 ng/g
  concentration at 8 h: 1090 ng/g
[1]; C57BL/6 J, muscle homogenate, 20 mg/kg, Muscle, read-out: Mean Plasma or Tissue Homogenate Conc
  concentration at 0.5 h: 516 ng/mL
[1]; C57BL/6 J, muscle homogenate, 20 mg/kg, Muscle, read-out: Plasma or Tissue Homogenate Conc (individual animals)
  concentration at 0.5 h: 443 ng/mL
[1]; [6]
  concentration at 1 h: 390 ng/mL
  concentration at 2 h: 192 ng/mL
  concentration at 4 h: 83.3 ng/mL
  concentration at 8 h: 33.1 ng/mL
[1]; [7]
  concentration at 1 h: 336 ng/mL
  concentration at 2 h: 152 ng/mL
  concentration at 4 h: 63.6 ng/mL
  concentration at 8 h: 26.1 ng/mL
[1]; C57BL/6 J, muscle, 20 mg/kg, Muscle, read-out: Mean Tissue
  concentration at 0.5 h: 2060 ng/g
[1]; [8]
  concentration at 1 h: 1560 ng/g
  concentration at 2 h: 768 ng/g
  concentration at 4 h: 333 ng/g
  concentration at 8 h: 132 ng/g
[1]; [9]
  concentration at 0.5 h: 10500 ng/mL
  concentration at 1 h: 9150 ng/mL
  concentration at 2 h: 4810 ng/mL
  concentration at 4 h: 2190 ng/mL
  concentration at 8 h: 1030 ng/mL
[1]; [10]
  concentration at 0.5 h: 12300 ng/mL
  concentration at 1 h: 7700 ng/mL
  concentration at 2 h: 5560 ng/mL
  concentration at 4 h: 1930 ng/mL
  concentration at 8 h: 868 ng/mL
[1]; [11]
  Kp at 1 h: 0.17
  Kp at 2 h: 0.16
  Kp at 4 h: 0.152
  Kp at 8 h: 0.128
[1]; C57BL/6 J, Brain
  Kp at 0.5 h: 0.134
  Kp at 1 h: 0.12
  Kp at 2 h: 0.113
  Kp at 4 h: 0.105
  Kp at 8 h: 0.086
[1]; C57BL/6 J, Kidney
  Kp at 1 h: 0.929
  Kp at 2 h: 0.846
  Kp at 4 h: 0.801
  Kp at 8 h: 0.758
[1]; C57BL/6 J, Muscle
  Kp at 0.5 h: 0.197
[1]; 20 mg/kg i.p.
  levels in muscle: 1 to 1.6 µM
[1]; 20 mg/kg i.p., 20 mg/kg
  tissue distribution: accumulated preferentially in liver and kidney; also recorded: moderately brain-penetrant
[2]
  Tmax: ≤ 0.5 h
[2]; read-out: peak plasma concentration (Cmax)
  Cmax: 9910 ng/mL
[2]; read-out: peak plasma concentration (Cmax), molar
  Cmax: ~30 µM
[2]; read-out: terminal half-life (t1/2) (converted)
  half-life: 4.64 h
[2]; read-out: total systemic exposure (AUCinf)
  AUC(0-inf): 66000 ng·h/mL
[2]; at 24 h, read-out: last measurable plasma concentration
  concentration at 24 h: 240 ng/mL
